Values quoted from earlier work in US10934283B2, “COMT inhibiting methods and compositions” (LIEBER INSTITUTE FOR BRAIN DEVELOPMENT, priority 2015, dated 2021).

Key:
[1] = biological target: T1, aromatic amino acid decarboxylase (AAAD) (Homo sapiens, UniProt P20711); conditions: given with L-DOPA; Nutt, Woodward et al. 1985; cited from earlier work
T1 sequence (P20711 1-480): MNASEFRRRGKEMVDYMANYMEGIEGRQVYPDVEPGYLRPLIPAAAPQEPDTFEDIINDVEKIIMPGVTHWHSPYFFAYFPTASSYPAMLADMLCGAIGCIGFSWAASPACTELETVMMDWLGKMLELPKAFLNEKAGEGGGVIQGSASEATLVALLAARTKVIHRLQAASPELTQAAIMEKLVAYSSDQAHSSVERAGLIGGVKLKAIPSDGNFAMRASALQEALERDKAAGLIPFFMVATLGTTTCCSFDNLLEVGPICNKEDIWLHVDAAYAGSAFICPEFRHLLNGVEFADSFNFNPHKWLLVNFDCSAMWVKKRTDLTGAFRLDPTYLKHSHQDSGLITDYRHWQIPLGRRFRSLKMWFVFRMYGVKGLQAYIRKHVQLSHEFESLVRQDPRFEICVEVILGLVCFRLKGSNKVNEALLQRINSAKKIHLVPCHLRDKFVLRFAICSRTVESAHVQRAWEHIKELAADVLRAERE

[2] = Russ, et al. 1999; cited from earlier work
[3] = clinical use; Olanow and Watkins 2007; cited from earlier work

C[C@@](Cc1ccc(O)c(O)c1)(NN)C(=O)O [Carbidopa]
reduction of the efficacious L-DOPA dose [1]: 60-80%

Cc1ccc(C(=O)c2cc(O)c(O)c([N+](=O)[O-])c2)cc1 [tolcapone]
brain penetration [2]: low but measurable | liver injury [3]: serious liver injury, including three deaths
